Results as given in patent US20230135152A1 (ACURASTEM INCORPORATED, priority 2020, published 2023).

How the values were obtained:
PIKFYVE [1] = target: T1, PIKFYVE (Homo sapiens, UniProt Q9Y2I7); test: Cell-based Pikfyve inhibition activity assay (EEA1 staining, mean vesicle size in BJ fibroblast cells); conditions: Table 4, 4 hours treatment, 3 μM Apilimod = 100% inhibition
Summary of the method: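 BJ fibroblasts treated 4 h at 37° C with eleven 3-fold doses (0.03-3000 nM), then fixed and stained for EEA1. Confocal images (20×, 16 tiles/well) analysed for mean vesicle size. Normalised to 0.5% DMSO (0%) and 3 μM apilimod (100%); dose-response fitted with variable slope.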

PIKFYVE [2] = target: T1, PIKFYVE; test: PIKFYVE assay (luciferase ADP-Glo kinase assay, Promega); assay type: biochemical
Summary of the method: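 Kinase activity measured with a luciferase-based ADP-Glo read-out, which quantifies ADP formed by the enzyme.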

T1 sequence (Q9Y2I7 whole entry): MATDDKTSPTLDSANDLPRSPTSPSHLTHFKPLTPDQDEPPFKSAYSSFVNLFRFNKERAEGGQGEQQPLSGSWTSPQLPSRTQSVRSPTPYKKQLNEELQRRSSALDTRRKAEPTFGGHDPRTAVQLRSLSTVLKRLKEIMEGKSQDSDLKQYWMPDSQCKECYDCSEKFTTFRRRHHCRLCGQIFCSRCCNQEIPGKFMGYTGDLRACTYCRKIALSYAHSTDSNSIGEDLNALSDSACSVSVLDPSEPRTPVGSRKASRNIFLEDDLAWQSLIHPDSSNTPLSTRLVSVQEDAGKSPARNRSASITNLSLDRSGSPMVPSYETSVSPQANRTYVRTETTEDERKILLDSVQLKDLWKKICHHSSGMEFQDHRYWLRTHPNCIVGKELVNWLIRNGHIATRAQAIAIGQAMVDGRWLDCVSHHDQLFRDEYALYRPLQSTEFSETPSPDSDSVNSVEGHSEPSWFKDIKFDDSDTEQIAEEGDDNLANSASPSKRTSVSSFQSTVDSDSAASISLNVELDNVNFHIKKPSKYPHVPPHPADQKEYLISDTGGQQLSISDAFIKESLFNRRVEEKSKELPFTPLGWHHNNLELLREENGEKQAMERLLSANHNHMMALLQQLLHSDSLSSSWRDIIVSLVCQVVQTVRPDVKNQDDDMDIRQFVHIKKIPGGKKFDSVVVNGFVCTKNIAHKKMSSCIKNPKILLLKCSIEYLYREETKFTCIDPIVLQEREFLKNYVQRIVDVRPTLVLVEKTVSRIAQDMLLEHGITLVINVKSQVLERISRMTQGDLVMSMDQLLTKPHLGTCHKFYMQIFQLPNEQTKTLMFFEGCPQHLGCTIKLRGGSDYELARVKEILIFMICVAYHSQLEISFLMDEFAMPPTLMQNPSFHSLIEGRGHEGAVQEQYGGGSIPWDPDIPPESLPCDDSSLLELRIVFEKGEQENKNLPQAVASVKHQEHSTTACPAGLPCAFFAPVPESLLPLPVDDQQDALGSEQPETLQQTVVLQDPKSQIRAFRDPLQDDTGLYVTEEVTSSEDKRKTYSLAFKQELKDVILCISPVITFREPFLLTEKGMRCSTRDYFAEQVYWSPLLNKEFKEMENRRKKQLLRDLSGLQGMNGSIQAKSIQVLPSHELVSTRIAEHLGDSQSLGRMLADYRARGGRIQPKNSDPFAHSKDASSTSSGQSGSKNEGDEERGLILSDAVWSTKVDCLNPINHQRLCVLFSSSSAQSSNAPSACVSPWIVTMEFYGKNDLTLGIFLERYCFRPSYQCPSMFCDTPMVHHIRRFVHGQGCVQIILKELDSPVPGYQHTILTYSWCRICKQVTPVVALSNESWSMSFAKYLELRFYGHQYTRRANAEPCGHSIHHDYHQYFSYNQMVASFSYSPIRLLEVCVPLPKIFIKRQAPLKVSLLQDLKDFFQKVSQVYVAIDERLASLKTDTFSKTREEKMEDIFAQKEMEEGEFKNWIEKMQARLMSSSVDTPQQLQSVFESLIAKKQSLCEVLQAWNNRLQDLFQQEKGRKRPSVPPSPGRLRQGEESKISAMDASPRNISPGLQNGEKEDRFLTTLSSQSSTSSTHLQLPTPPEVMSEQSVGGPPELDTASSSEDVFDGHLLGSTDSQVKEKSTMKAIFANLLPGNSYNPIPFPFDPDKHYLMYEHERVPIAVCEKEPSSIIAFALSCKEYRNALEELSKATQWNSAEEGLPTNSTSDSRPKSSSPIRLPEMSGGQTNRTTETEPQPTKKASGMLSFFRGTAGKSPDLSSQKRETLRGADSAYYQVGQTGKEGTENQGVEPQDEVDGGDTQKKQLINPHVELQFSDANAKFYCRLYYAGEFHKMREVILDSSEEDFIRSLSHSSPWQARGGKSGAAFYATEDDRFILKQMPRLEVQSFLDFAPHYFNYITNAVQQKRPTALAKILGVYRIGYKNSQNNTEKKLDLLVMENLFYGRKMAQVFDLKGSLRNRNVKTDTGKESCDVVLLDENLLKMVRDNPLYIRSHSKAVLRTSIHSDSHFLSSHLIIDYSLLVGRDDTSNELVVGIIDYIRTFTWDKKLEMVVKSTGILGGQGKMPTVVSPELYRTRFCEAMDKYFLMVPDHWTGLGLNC

Structure (SMILES) | EC50 (PIKFYVE [1]) [nM] | IC50 (PIKFYVE [2]; Table 2) [nM] | IC50 (PIKFYVE [2]; Table 3) [nM]
Cn1cc(CCOc2nc(N3CCOCC3)cc(-n3ccc(OCc4ccccc4)n3)n2)cn1 [Compound 62, 4-(6-(3-(benzyloxy)-1H-pyrazol-1-yl)-2-(2-(1-methyl-1H-pyrazol-4-yl)ethoxy)pyrimidin-4-yl)morpholine] | 20 to 100 | < 5 | 
Cc1cccc(-c2ccn(-c3cc(N4CCOCC4)nc(CCc4cnn(C)c4)n3)n2)c1 [Compound 223, 4-(2-(2-(1-methyl-1H-pyrazol-4-yl)ethyl)-6-(3-(m-tolyl)-1H-pyrazol-1-yl)pyrimidin-4-yl)morpholine] | 100 to 500 |  | < 3
COCc1cccc(-c2ccn(-c3cc(N4CCOCC4)nc([C@H](CO)OC)n3)n2)c1 [Compound 277, (R)-2-methoxy-2-(4-(3-(3-(methoxymethyl)phenyl)-1H-pyrazol-1-yl)-6-morpholinopyrimidin-2-yl)ethan-1-ol] | 100 to 500 |  | 3 to 10
Cc1cccc(-c2ccn(-c3cc(N4CCOCC4)nc([C@H]4CCCO4)n3)n2)c1 (single isomer, unassigned) [Compound 327] | 500 to 5000 |  | 3 to 10
Cc1cccc(-c2cc([C@@H](C)O)n(-c3cc(N4CCOCC4)nc(OCCc4cnn(C)c4)n3)n2)c1 (single isomer, unassigned) [Compound 314] | < 20 |  | < 3
Cc1cccc(-c2ccn(-c3cc(N4CCOCC4)nc([C@H]4C[C@@H](O)CO4)n3)n2)c1 [Compound 331, (3R,5R)-5-(4-morpholino-6-(3-(m-tolyl)-1H-pyrazol-1-yl)pyrimidin-2-yl)tetrahydrofuran-3-ol] | 100 to 500 |  | 3 to 10
CO[C@H](CO)c1nc(N2CCOCC2)cc(-n2ccc(-c3c[nH]c4ccccc34)n2)n1 (single isomer, unassigned) [Compound 318] | < 20 |  | < 3
CNCCc1cc(-c2ccccc2)nn1-c1cc(N2CCOCC2)nc(OCCc2cnn(C)c2)n1 [Compound 221, N-methyl-2-(1-(2-(2-(1-methyl-1H-pyrazol-4-yl)ethoxy)-6-morpholinopyrimidin-4-yl)-3-phenyl-1H-pyrazol-5-yl)ethan-1-amine] | 20 to 100 |  | < 3
Cc1cccc(-c2ccn(-c3cc(N4CCOCC4)nc(OCCn4cnc(CN(C)C)c4)n3)n2)c1 [Compound 117, N,N-dimethyl-1-(1-(2-((4-morpholino-6-(3-(m-tolyl)-1H-pyrazol-1-yl)pyrimidin-2-yl)oxy)ethyl)-1H-imidazol-4-yl)methanamine] | 500 to 5000 |  | 10 to 100
COc1cccc(-c2ccn(-c3cc(N4CCOCC4)nc(N)n3)n2)c1 [Compound 44, 4-(3-(3-methoxyphenyl)-1H-pyrazol-1-yl)-6-morpholino-pyrimidin-2-amine] | 100 to 500 | < 5 | 
Cn1cc(CCOc2nc(N3CCOCC3)cc(-n3ccc(OCc4ccccc4F)n3)n2)cn1 [Compound 129, 4-(6-(3-((2-fluorobenzyl)oxy)-1H-pyrazol-1-yl)-2-(2-(1-methyl-1H-pyrazol-4-yl)ethoxy)pyrimidin-4-yl)morpholine] | 100 to 500 |  | 3 to 10
CO[C@H](CO)c1nc(N2CCOCC2)cc(-n2ccc(-c3cccc4ncsc34)n2)n1 [Compound 274, (S)-2-(4-(3-(benzo[d]thiazol-7-yl)-1H-pyrazol-1-yl)-6-morpholinopyrimidin-2-yl)-2-methoxyethan-1-ol] | > 5000 |  | 100 to 5000
Cn1cc(CCOc2nc(N3CCOCC3)cc(-n3ccc(-c4cn(C)c5ccccc45)n3)n2)cn1 [Compound 232, 4-(6-(3-(1-methyl-1H-indol-3-yl)-1H-pyrazol-1-yl)-2-(2-(1-methyl-1H-pyrazol-4-yl)ethoxy)pyrimidin-4-yl)morpholine] | > 5000 |  | 100 to 5000
Cc1cccc(-c2ccn(-c3cc(N4CCOCC4)nc(OCC(=O)C4CC4)n3)n2)c1 [Compound 109, 1-cyclopropyl-2-((4-morpholino-6-(3-(m-tolyl)-1H-pyrazol-1-yl)pyrimidin-2-yl)oxy)ethan-1-one] | 20 to 100 |  | 3 to 10
Cc1cccc(-c2ccn(-c3cc(N4CCOCC4)nc(NCCO)n3)n2)c1 [Compound 208, 2-((4-morpholino-6-(3-(m-tolyl)-1H-pyrazol-1-yl)pyrimidin-2-yl)amino)ethan-1-ol] | 20 to 100 |  | 3 to 10
Cc1cccc(-c2ccn(-c3cc(N4CCOCC4)nc(NC(=O)Cc4cnn(C)c4)n3)n2)c1 [Compound 186, 2-(1-methyl-1H-pyrazol-4-yl)-N-(4-morpholino-6-(3-(m-tolyl)-1H-pyrazol-1-yl)pyrimidin-2-yl)acetamide] | 100 to 500 |  | < 3
CCO[C@H](CO)c1nc(N2CCOCC2)cc(-n2ccc(-c3cccc(C)c3)n2)n1 (single isomer, unassigned) [Compound 311] | 100 to 500 |  | 3 to 10
Cc1cccc(-c2ccn(-c3cc(N4CCOCC4)nc(OCCc4cn[nH]c4)n3)n2)c1 [Compound 214, 4-(2-(2-(1H-pyrazol-4-yl)ethoxy)-6-(3-(m-tolyl)-1H-pyrazol-1-yl)pyrimidin-4-yl)morpholine] | < 20 |  | < 3
Cc1cccc(-c2ccn(-c3cc(N4CCOCC4)nc(OCC(c4ccccc4)N(C)C)n3)n2)c1 (stereo not shown) [Compound 111, N,N-dimethyl-2-((4-morpholino-6-(3-(m-tolyl)-1H-pyrazol-1-yl)pyrimidin-2-yl)oxy)-1-phenylethan-1-amine] | > 5000 |  | 3 to 10
COc1cccc(-c2ccn(-c3cc(N4CCOCC4)nc([C@@H](CO)OC)n3)n2)c1 [Compound 262, (S)-2-methoxy-2-(4-(3-(3-methoxyphenyl)-1H-pyrazol-1-yl)-6-morpholinopyrimidin-2-yl)ethan-1-ol] | 100 to 500 |  | 10 to 100
Cc1cccc(-c2ccn(-c3cc(N4CCOCC4)nc(C#CC(O)c4cnn(C)c4)n3)n2)c1 (stereo not shown) [Compound 230, 1-(1-methyl-1H-pyrazol-4-yl)-3-(4-morpholino-6-(3-(m-tolyl)-1H-pyrazol-1-yl)pyrimidin-2-yl)prop-2-yn-1-ol] | 20 to 100 |  | < 3
Cn1cc(CCOc2nc(N3CCOCC3)cc(-n3nc(-c4ccccc4)cc3C3CC3)n2)cn1 [Compound 216, 4-(6-(5-cyclopropyl-3-phenyl-1H-pyrazol-1-yl)-2-(2-(1-methyl-1H-pyrazol-4-yl)ethoxy)pyrimidin-4-yl)morpholine] | 20 to 100 |  | < 3
COC(CO)c1nc(N2CCOCC2)cc(-n2nc(-c3c[nH]c4ccccc34)cc2C)n1 (single isomer, unassigned) [Compound 260, 2-(4-(3-(1H-indol-3-yl)-5-methyl-1H-pyrazol-1-yl)-6-morpholinopyrimidin-2-yl)-2-methoxyethan-1-ol] | < 20 |  | < 3
